Experimental data reported in PMC11157767 (Molecular Cancer, 2024).
Values joined by “and” are separate entries in the source; they are usually repeats but may differ in a detail not shown here. Equal values may be shown once. Read-outs that look alike come from different tables or passages of the source.

Legend:
TRIM24-MET-i PDOX [1] = test: TRIM24-MET-i PDOX 4-arm trial capmatinib +/- RT (survival, BLI, body weight); type: in vivo, mouse
Method: (§1) All treatments started 18 days after transplantation. Radiotherapy was administered at 0.5 Gy per day, delivering 10 Gy total.
Treatment started on day 13.

TRIM24-MET-i cells = test: 3-day dose-response assay, TRIM24-MET-i cells; type: cell-based; conditions: Homo sapiens, TRIM24-MET-i
TRIM24-MET-i PDOX [2] = conditions: for BLI signal, individual mice: PDX trial cap vs cabo
Method: as §1
Each line represents one mouse. The ends of lines indicate the onset of neurological symptoms and thereby the endpoints. Treatment started on day 13.

[3] = system: murine TFG-MET tumor cells; test: cells; conditions: Mus musculus
From the text: To calculate unbound EC50 and EC90 values, total values were multiplied with unbound drug fractions in culture media (Table 1).

CNC(=O)c1ccc(-c2cnc3ncc(Cc4ccc5ncccc5c4)n3n2)cc1F [Capmatinib]
mice with spinal metastasis after therapy was withdrawn (TRIM24-MET-i PDOX [1]; capmatinib + RT): one | tumor burden (TRIM24-MET-i PDOX [1]; capmatinib + RT (0.5 Gy per day, 10 Gy total)): profoundly and stably decreased tumor burden | disease course under monotherapy (TRIM24-MET-i PDOX [1]; capmatinib alone): stable disease in all treated animals | EC90 (TRIM24-MET-i cells; 72 h, 3-day dose response, read-out: EC90 Total): 5.93 nM | EC90 (TRIM24-MET-i cells; total value multiplied with unbound fraction in culture media, read-out: EC90 Unbound): 4.18 nM | BLI signal, individual mice (TRIM24-MET-i PDOX [2]; day 7): 3.18E+07 and 1.72E+07 and 3.36E+07 | BLI signal, individual mice (TRIM24-MET-i PDOX [2]; day 9): 7.47E+07 and 3.47E+07 | BLI signal, individual mice (TRIM24-MET-i PDOX [2]; day 14): 5.84E+07 and 2.51E+07 | BLI signal, individual mice (TRIM24-MET-i PDOX [2]; day 17): 2.44E+07 and 1.00E+07 | BLI signal, individual mice (TRIM24-MET-i PDOX [2]; day 21): 1.66E+07 and 1.85E+07 | BLI signal, individual mice (TRIM24-MET-i PDOX [2]; day 24): 1.50E+07 and 1.24E+07 | BLI signal, individual mice (TRIM24-MET-i PDOX [2]; day 28): 1.39E+07 and 1.53E+07 | BLI signal, individual mice (TRIM24-MET-i PDOX [2]; day 31): 7.80E+06 and 1.43E+07 | BLI signal, individual mice (TRIM24-MET-i PDOX [2]; day 35): 9.55E+06 and 1.60E+07 and 7.43E+06 | BLI signal, individual mice (TRIM24-MET-i PDOX [2]; day 38): 8.92E+06 and 1.56E+07 and 7.00E+06 | BLI signal, individual mice (TRIM24-MET-i PDOX [2]; day 42): 7.91E+06 and 1.63E+07 and 5.51E+06 | BLI signal, individual mice (TRIM24-MET-i PDOX [2]; day 45): 9.52E+06 and 1.30E+07 and 6.98E+06 | BLI signal, individual mice (TRIM24-MET-i PDOX [2]; day 49): 7.93E+06 and 9.97E+06 and 5.88E+06 | BLI signal, individual mice (TRIM24-MET-i PDOX [2]; day 52): 7.48E+06 and 8.25E+06 and 4.19E+06 | BLI signal, individual mice (TRIM24-MET-i PDOX [2]; day 56): 8.25E+06 and 1.00E+07 and 5.09E+06 | BLI signal, individual mice (TRIM24-MET-i PDOX [2]; day 59): 2.02E+06 and 8.98E+06 and 4.17E+06 | BLI signal, individual mice (TRIM24-MET-i PDOX [2]; day 63): 5.64E+06 and 9.13E+06 and 4.23E+06 | BLI signal, individual mice (TRIM24-MET-i PDOX [2]; day 66): 6.00E+06 and 8.25E+06 and 4.18E+06 | BLI signal, individual mice (TRIM24-MET-i PDOX [2]; day 70): 1.53E+06 and 8.82E+06 and 4.89E+06 | BLI signal, individual mice (TRIM24-MET-i PDOX [2]; day 73): 1.32E+06 and 6.23E+06 and 4.17E+06 | BLI signal, individual mice (TRIM24-MET-i PDOX [2]; day 77): 4.79E+05 and 1.07E+07 and 4.65E+06 | BLI signal, individual mice (TRIM24-MET-i PDOX [2]; day 80): 4.21E+05 and 1.01E+07 and 4.77E+06 | BLI signal, individual mice (TRIM24-MET-i PDOX [2]; day 87): 5.96E+05 and 1.05E+07 and 4.96E+06 | BLI signal, individual mice (TRIM24-MET-i PDOX [2]; day 94): 8.51E+05 and 7.79E+06 | BLI signal, individual mice (TRIM24-MET-i PDOX [2]; day 101): 4.10E+05 and 7.68E+06 | BLI signal, individual mice (TRIM24-MET-i PDOX [2]; day 108): 4.16E+05 and 7.10E+06 | BLI signal, individual mice (TRIM24-MET-i PDOX [2]; day 115): 3.96E+05 and 8.39E+06 | BLI signal, individual mice (TRIM24-MET-i PDOX [2]; day 122): 5.52E+05 and 6.96E+06 | BLI signal, individual mice (TRIM24-MET-i PDOX [2]; day 129): 5.43E+05 and 7.67E+06 | BLI signal, individual mice (TRIM24-MET-i PDOX [2]; day 134): 7.37E+05 and 1.29E+07 | BLI signal, individual mice (TRIM24-MET-i PDOX [2]; day 142): 2.48E+05 and 8.31E+06 | BLI signal, individual mice (TRIM24-MET-i PDOX [2]; day 147): 1.01E+05 and 6.09E+06 | BLI signal, individual mice (TRIM24-MET-i PDOX [2]; day 154): 7.12E+04 and 6.90E+06 | BLI signal, individual mice (TRIM24-MET-i PDOX [2]; day 161): 9.26E+04 and 5.65E+06 | BLI signal, individual mice (TRIM24-MET-i PDOX [2]; day 175): 1.61E+05 and 5.72E+06 | BLI signal, individual mice (TRIM24-MET-i PDOX [2]; day 182): 4.78E+04 and 7.21E+06 | BLI signal, individual mice (TRIM24-MET-i PDOX [2]; day 190): 3.12E+05 and 5.75E+06 | BLI signal, individual mice (TRIM24-MET-i PDOX [2]; day 196): 6.90E+05 and 4.81E+06 | BLI signal, individual mice (TRIM24-MET-i PDOX [2]; day 203): 1.41E+06 and 5.43E+06 | BLI signal, individual mice (TRIM24-MET-i PDOX [2]; day 210): 4.51E+07 and 1.12E+07 | BLI signal, individual mice (TRIM24-MET-i PDOX [2]; day 217): 1.20E+07 | BLI signal, individual mice (TRIM24-MET-i PDOX [2]; day 224): 3.17E+07 | BLI signal, individual mice (TRIM24-MET-i PDOX [2]; day 231): 3.11E+08 | BLI signal, individual mice (TRIM24-MET-i PDOX [2]; day 238): 8.31E+08 | survival over the 19-week treatment period (TRIM24-MET-i PDOX [2]; capmatinib BID, 8 mice): all mice surviving | mice with initial tumor regression (luciferase imaging) (TRIM24-MET-i PDOX [2]; capmatinib monotherapy): two out of eight | mice with stable disease (BLI) (TRIM24-MET-i PDOX [2]; capmatinib monotherapy): six out of eight | mice with tumor relapse within 6 months after treatment ceased (TRIM24-MET-i PDOX [2]; capmatinib, treated 133 days): 7 of 8 | EC90 ([3]; read-out: EC90 (nM) Total): 29.9 nM | EC90 ([3]; read-out: EC90 (nM) Unbound*): 21.1 nM
